In PMC8213057, “Targeting ALK2: An Open Science Approach to Developing Therapeutics for the Treatment of Diffuse Intrinsic Pontine Glioma” (Journal of Medicinal Chemistry, 2020):

Experiments:
[1] = target: ABL2/ARG (Homo sapiens, UniProt P42684); details: 1 μM; Run 1, Run 2
[2] = target: CDK1/cyclin A (Homo sapiens, UniProt P06493); details: 1 μM; Run 1, Run 2
[3] = target: KDR/VEGFR2 (Homo sapiens, UniProt P35968); details: 1 μM; Run 1, Run 2
[4] = target: T1, LATS1 (Homo sapiens, UniProt O95835); details: 1 μM; Run 1, Run 2
T1 sequence (O95835 1-1130): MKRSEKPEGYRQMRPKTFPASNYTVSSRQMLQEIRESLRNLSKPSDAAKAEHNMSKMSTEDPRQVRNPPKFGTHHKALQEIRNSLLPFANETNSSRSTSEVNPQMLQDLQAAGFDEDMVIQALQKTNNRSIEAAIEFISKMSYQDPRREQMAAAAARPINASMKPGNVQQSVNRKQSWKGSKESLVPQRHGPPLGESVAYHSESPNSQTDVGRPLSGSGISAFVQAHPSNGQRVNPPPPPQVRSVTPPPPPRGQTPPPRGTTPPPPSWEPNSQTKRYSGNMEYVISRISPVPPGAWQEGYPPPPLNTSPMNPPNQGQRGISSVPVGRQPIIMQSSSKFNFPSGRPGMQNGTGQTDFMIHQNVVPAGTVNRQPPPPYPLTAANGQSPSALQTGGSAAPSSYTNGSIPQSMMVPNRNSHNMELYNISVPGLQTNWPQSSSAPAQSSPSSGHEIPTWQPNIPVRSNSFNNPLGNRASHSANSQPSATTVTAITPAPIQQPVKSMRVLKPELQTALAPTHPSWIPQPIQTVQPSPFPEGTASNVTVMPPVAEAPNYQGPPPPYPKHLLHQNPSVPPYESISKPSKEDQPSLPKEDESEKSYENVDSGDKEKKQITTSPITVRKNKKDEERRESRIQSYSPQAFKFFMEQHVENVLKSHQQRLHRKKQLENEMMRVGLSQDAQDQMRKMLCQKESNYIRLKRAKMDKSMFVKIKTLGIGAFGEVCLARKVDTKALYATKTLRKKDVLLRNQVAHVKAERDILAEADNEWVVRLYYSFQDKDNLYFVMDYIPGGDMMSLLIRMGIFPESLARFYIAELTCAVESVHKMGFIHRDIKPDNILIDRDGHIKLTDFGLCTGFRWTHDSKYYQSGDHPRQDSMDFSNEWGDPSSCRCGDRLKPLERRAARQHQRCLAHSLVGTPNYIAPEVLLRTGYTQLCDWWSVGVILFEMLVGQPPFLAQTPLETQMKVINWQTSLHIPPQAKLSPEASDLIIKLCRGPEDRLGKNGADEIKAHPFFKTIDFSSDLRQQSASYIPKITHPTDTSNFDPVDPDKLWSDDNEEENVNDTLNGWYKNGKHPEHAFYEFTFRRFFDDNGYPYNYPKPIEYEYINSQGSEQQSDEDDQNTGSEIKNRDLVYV

[5] = target: T2, Haspin (Homo sapiens, UniProt Q8TF76); assay: biochemical; details: read-out: % enzyme activity, 1 μM; Run 1, Run 2
T2 sequence (Q8TF76 1-798): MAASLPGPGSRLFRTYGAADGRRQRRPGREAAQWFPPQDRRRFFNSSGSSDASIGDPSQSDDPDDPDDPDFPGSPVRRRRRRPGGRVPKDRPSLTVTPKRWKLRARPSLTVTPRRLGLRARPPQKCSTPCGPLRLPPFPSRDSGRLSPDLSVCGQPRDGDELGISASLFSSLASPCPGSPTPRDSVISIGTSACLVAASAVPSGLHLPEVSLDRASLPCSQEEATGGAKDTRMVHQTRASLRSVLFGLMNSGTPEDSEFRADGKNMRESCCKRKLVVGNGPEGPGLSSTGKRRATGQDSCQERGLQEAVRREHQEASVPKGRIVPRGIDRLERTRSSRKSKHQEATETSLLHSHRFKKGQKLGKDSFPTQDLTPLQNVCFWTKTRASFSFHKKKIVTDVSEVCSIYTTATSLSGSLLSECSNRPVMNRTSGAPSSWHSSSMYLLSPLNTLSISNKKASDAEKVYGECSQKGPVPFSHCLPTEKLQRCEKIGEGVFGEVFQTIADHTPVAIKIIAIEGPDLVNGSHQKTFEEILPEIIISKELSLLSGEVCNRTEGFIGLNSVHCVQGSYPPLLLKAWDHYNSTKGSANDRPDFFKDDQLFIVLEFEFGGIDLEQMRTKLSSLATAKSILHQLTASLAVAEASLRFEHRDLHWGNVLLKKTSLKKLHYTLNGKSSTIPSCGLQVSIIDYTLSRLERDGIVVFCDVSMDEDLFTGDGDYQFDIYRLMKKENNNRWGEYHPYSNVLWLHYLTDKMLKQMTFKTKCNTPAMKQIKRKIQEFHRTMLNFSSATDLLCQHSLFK

[6] = target: T3, NEK3 (Homo sapiens, UniProt P51956); assay: biochemical; details: read-out: % enzyme activity, 1 μM; Run 1, Run 2
T3 sequence (P51956 1-506): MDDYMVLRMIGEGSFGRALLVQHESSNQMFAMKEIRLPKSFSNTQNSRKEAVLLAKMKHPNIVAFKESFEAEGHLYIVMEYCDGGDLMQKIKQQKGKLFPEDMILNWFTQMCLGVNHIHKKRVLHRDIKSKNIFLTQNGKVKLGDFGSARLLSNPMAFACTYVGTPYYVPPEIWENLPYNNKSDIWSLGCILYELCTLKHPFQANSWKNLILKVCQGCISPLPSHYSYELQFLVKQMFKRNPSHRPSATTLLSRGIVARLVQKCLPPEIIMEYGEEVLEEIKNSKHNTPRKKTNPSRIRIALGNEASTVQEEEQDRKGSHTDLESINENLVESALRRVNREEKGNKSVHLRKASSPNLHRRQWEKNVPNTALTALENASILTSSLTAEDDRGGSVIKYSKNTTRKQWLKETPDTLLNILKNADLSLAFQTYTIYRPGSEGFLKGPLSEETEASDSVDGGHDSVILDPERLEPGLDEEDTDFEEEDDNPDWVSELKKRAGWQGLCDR

Sequence of CDK1/cyclin A (P20248 whole entry): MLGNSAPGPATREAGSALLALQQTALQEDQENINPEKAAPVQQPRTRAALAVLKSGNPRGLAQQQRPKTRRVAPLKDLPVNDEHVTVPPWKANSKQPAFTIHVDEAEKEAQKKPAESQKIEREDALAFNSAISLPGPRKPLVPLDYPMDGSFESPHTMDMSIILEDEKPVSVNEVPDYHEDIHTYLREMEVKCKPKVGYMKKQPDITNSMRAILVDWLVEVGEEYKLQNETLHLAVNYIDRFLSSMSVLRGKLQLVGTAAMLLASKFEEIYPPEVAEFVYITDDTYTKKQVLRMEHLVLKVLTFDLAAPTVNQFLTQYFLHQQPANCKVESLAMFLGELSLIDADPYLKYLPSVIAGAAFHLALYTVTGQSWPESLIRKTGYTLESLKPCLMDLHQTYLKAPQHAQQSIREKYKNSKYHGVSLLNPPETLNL
Sequence of CDK1/cyclin A (P06493 whole entry): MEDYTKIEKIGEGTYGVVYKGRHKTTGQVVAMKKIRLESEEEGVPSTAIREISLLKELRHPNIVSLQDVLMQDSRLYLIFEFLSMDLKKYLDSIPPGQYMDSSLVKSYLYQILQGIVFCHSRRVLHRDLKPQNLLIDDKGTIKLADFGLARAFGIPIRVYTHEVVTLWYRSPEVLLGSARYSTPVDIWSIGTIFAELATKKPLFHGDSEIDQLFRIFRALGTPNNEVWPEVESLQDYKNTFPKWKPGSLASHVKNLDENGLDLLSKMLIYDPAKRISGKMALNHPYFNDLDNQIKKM
Sequence of KDR/VEGFR2 (P35968 20-1356): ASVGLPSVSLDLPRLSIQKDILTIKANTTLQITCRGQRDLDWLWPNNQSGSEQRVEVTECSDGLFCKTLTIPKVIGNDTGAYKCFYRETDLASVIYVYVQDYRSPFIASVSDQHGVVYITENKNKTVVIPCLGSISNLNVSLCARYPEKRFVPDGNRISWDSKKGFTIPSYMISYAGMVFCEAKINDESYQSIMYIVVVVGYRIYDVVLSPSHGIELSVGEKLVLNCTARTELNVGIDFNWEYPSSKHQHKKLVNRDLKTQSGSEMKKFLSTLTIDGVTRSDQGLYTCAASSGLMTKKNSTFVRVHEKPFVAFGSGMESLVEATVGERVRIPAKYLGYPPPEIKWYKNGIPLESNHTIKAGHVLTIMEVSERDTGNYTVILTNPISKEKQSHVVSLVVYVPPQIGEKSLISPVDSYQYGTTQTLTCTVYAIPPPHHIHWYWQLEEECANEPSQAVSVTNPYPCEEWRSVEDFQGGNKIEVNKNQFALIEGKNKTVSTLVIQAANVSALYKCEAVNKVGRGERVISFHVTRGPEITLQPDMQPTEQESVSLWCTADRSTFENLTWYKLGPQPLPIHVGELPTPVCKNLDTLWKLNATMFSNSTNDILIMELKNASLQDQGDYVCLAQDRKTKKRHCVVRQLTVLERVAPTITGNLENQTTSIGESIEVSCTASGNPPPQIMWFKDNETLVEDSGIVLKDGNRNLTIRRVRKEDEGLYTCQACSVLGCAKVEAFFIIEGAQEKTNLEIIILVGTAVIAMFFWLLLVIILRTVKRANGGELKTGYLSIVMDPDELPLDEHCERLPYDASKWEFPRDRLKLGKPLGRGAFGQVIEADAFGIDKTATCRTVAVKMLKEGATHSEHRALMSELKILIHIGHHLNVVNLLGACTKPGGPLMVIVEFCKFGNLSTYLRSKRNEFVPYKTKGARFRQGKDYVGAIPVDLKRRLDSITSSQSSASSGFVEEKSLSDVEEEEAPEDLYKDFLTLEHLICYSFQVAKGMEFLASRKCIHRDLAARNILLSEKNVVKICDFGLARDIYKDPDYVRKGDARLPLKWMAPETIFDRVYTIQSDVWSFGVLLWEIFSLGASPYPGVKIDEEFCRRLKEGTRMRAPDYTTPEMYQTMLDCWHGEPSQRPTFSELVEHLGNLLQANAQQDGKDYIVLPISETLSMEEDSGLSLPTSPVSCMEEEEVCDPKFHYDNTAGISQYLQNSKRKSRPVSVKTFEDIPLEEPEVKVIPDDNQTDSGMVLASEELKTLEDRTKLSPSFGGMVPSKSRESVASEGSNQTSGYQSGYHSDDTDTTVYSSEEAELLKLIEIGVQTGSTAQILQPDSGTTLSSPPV
Sequence of ABL2/ARG (P42684 whole entry): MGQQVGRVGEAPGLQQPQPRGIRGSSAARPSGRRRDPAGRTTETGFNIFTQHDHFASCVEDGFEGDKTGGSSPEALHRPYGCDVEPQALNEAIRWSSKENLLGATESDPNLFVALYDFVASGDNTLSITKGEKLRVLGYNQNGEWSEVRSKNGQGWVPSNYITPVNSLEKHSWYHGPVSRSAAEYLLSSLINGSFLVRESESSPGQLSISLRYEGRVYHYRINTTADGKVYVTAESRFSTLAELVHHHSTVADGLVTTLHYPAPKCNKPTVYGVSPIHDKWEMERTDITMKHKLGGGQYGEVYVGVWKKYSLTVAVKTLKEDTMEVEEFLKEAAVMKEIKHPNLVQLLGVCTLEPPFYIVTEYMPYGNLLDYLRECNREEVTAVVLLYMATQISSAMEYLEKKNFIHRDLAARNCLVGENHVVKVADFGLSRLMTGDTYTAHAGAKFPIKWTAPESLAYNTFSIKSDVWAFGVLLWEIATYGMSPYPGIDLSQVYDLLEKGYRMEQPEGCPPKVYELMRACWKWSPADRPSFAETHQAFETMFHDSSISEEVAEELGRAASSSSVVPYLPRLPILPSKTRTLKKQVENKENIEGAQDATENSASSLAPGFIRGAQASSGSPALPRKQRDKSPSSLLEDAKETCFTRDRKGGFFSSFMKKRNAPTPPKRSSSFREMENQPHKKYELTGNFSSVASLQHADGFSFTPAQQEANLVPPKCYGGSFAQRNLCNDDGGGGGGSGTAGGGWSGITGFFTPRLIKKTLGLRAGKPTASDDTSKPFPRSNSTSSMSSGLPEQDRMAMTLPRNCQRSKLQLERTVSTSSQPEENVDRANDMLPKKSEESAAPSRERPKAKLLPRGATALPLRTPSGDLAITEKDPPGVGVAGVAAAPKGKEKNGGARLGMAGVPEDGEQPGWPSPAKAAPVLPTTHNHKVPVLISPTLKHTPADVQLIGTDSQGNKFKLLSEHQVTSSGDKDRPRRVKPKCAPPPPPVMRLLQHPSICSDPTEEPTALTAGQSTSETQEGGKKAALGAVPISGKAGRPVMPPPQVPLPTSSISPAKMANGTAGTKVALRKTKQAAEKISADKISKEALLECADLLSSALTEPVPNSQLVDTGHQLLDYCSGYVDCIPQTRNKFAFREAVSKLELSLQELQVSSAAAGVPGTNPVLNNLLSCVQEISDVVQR

Compound | % enzyme activity [1] | % enzyme activity [2] | % enzyme activity [3] | % enzyme activity [4] | remaining activity at 1 µM [5] | remaining activity at 1 µM [6]
COc1cc(-c2cncc(-c3ccc(N4C[C@@H](C)N(C)[C@@H](C)C4)cc3)c2C)cc(F)c1C(N)=O [Compound 26c, 2-Fluoro-6-methoxy-4-(4-methyl-5-(4-((3R,5S)-3,4,5-trimethylpiperazin-1-yl)phenyl)pyridin-3-yl)benzamide] | 96.59% | 89.52% | 85.59% | 100.53% | 84.8% | 96.2%
COc1cc(-c2cncc(-c3ccc(N4CCN(C)CC4)cc3)c2C)cc(F)c1C(N)=O [Compound 26a, 2-Fluoro-6-methoxy-4-(4-methyl-5-(4-(4-methylpiperazin-1-yl)phenyl)pyridin-3-yl)benzamide] | 95.77% | 92.50% | 92.99% | 97.31% | 83.3% | 88.3%
